In patent US11707462B2, “Checkpoint kinase 1 (CHK1) inhibitors and uses thereof” (Boundless Bio, Inc., priority 2021, dated 2023):

Key:
[1] = molecular target: T1, Full-length human Chk1 protein (Homo sapiens, UniProt O14757); experiment: Kinase HTRF biochemical assay (HTRF KinEASE), Chk1 enzyme activity; settings: full-length human Chk1, ATP 1 mM, 60 minutes at room temperature
T1 construct: purchased Carna Biosciences, Inc. 02-117
T1 sequence (O14757 1-476): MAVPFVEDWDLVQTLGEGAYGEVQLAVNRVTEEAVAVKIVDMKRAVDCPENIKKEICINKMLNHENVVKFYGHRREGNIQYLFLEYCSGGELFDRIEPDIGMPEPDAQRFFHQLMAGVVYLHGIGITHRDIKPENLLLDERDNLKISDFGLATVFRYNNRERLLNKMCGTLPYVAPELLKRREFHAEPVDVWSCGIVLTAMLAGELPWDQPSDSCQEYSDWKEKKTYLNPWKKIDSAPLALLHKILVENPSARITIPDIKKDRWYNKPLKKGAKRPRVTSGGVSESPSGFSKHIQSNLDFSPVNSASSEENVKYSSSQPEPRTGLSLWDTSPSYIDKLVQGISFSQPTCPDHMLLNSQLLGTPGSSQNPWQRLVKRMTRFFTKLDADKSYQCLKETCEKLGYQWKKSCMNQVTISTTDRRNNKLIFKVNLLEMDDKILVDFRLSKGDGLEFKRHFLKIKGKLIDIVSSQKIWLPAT
Method: Example A: Kinase HTRF Biochemical Assay
Chk1 enzyme activity was measured using an HTRF KinEASE assay (Cisbio, catalog no. 62ST1PEC). Full-length human Chk1 protein (GenBank accession number NP_001265.1) was obtained from Carna Biosciences, Inc. (Kobe, Japan, catalog no. 02-117). The enzyme reaction was carried out in assay buffer containing (final concentrations): Chk1 enzyme (0.012 ng/μL), MgCl2 (5 mM) and DTT (1 mM). To determine compound dose response, DMSO stock solutions were serially diluted in a 10-point concentration series in duplicate. Compound solution (50 nL) was added to 384-well assay plates (Greiner, catalog no. 784075). To each well containing compound solution was added assay buffer solution (5 μL). Plates were centrifuged at 1000 rpm for 1 minute, then incubated at room temperature for 10 minutes. The reaction was started by addition of substrate buffer (5 μL/well) containing (final concentrations): STK substrate 1-biotin (120 nM) and ATP (1 mM). Assay plates were centrifuged at 1000 rpm for 1 minute, then incubated at room temperature for 60 minutes. The reaction was stopped by addition of detection buffer (Cisbio, 10 μL) containing (final concentrations): STK antibody-cryptate (0.25 nM) and streptavidin-XL665 (7.5 nM). Plates were centrifuged at 1000 rpm for 1 minute, then incubated at 25° C. for 2 hours. HTRF signal was read on an EnVision multimode plate reader […] in HTRF mode. Data were fit to dose-response curves using XLfit (IDBS, Surrey, UK) or Prism (GraphPad Software, La Jolla, Calif., US) to calculate IC50 values for each compound tested.

p-CHK1 (Ser345) = experiment: AlphaLISA SureFire Ultra p-CHK1 (Ser345) cellular assay in HT29 cells; assay type: cell-based; settings: Homo sapiens, HT-29, 16 h at 37° C.
Method: Example B: AlphaLisa Cellular Assay
Compound activity in cells was measured using an AlphaLISA® SureFire® Ultra™ p-CHK1 (Ser345) assay (Perkin Elmer, catalog no. ALSU-PCHK1-A10K). HT29 cells were cultured in McCoy 5A medium with 10% FBS and 1% penicillin-streptomycin and seeded to 96-well plates (Corning, catalog no. 3599). Compounds were serially diluted in DMSO over a 10-point dose range with 3-fold dilution and to each well containing cells was added compound solution. Plates were centrifuged at 1000 rpm for 30 seconds. Plates were incubated at 37° C. for 16 h. Supernatant was removed by flicking the plate against a paper towel. Wells were washed once with PBS solution. To each well was added freshly prepared lysis buffer and plates were agitated on a plate shaker at 400 rpm for 30 min. The 96-well cell plates were centrifuged at 1500 rpm for 1 minute. From each well was transferred 10 μL of the lysates to a 384-well Optiplate™ (Perkin Elmer, catalog no. 6007290). To each well was added Acceptor Mix (5 μL) and the plates were sealed and wrapped in foil. Plates were agitated on a plate shaker for 2 minutes, then incubated at room temperature for 1 h. To each well was added Donor Mix (5 μL) and the plates were sealed and wrapped in foil. Plates were agitated on a plate shaker for 2 minutes, then incubated at room temperature for 1 h. AlphaLisa signal was read on an EnVision multimode plate reader (Perkin Elmer). Data were fit to dose-response curves using XLfit (IDBS, Surrey, UK) or Prism (GraphPad Software, La Jolla, Calif., US) to calculate IC50 values for each compound tested.

SMILES	IC50 [1]	IC50 (p-CHK1 (Ser345))
CN[C@@H]1CC[C@@H](Oc2cc(C)cc(F)c2-c2cc(Nc3cnc(C#N)cn3)n[nH]2)C1 [Example 5-3, 5-((5-(2-fluoro-4-methyl-6-(((1R,3R)-3-(methylamino)cyclopentyl)oxy)phenyl)-1H-pyrazol-3-yl)amino)pyrazine-2-carbonitrile]	≤ 10 nM	≤ 50 nM
N#Cc1cnc(Nc2cc(-c3ncccc3O[C@H]3C[C@H](N)C3)[nH]n2)cn1 [Example 1-55, 5-((5-(3-((1r,3r)-3-aminocyclobutoxy)pyridin-2-yl)-1H-pyrazol-3-yl)amino)pyrazine-2-carbonitrile]	10 to 100 nM	500 to 1000 nM
CN[C@H]1CC[C@H](Oc2cccc(OC)c2-c2cc(Nc3cnc(C#N)cn3)n[nH]2)CC1 [Example 1-45, 5-((5-(2-methoxy-6-(((1r,4r)-4-(methylamino)cyclohexyl)oxy)phenyl)-1H-pyrazol-3-yl)amino)pyrazine-2-carbonitrile]	≤ 10 nM	50 to 100 nM
Cc1cccc(-c2cc(Nc3cnc(C#N)cn3)n[nH]2)c1O[C@@H]1CC[C@H](N)C1 [Example 3-12, 5-((5-(2-(((1R,3S)-3-aminocyclopentyl)oxy)-3-methylphenyl)-1H-pyrazol-3-yl)amino)pyrazine-2-carbonitrile]	> 1000 nM	> 1000 nM
COc1cccc(O[C@@H]2CC[C@H](N)C2)c1-c1cc(Nc2cnc(C#N)c(C)n2)n[nH]1 [Example 1-39, 5-((5-(2-(((1R,3S)-3-aminocyclopentyl)oxy)-6-methoxyphenyl)-1H-pyrazol-3-yl)amino)-3-methylpyrazine-2-carbonitrile]	10 to 100 nM	500 to 1000 nM
N#Cc1cnc(Nc2cc(-c3c(O[C@@H]4CC[C@H](N)C4)ccc(F)c3F)[nH]n2)cn1 [Example 3-18, 5-((5-(6-(((1R,3S)-3-aminocyclopentyl)oxy)-2,3-difluorophenyl)-1H-pyrazol-3-yl)amino)pyrazine-2-carbonitrile]	10 to 100 nM	100 to 500 nM
N#Cc1cnc(Nc2cc(-c3c(F)cc(Cl)cc3O[C@@H]3CC[C@@H](N)C3)[nH]n2)cn1 [Example 3-30, 5-((5-(2-(((1R,3R)-3-aminocyclopentyl)oxy)-4-chloro-6-fluoropheny)-1H-pyrazol-3-yl)amino)pyrazine-2-carbonitrile]	≤ 10 nM	100 to 500 nM
N#Cc1cnc(Nc2cc(-c3ncccc3O[C@H]3CC[C@@H](N)C3)[nH]n2)cn1 [Example 3-42, 5-((5-(3-(((1S,3R)-3-aminocyclopentyl)oxy)pyridin-2-yl)-1H-pyrazol-3-yl)amino)pyrazine-2-carbonitrile]	10 to 100 nM	100 to 500 nM
N#Cc1cnc(Nc2cc(-c3c(F)cccc3O[C@H]3C[C@H](N)C3)[nH]n2)cn1 [Example 1-13, 5-((5-(2-((1r,3r)-3-aminocyclobutoxy)-6-fluorophenyl)-1H-pyrazol-3-yl)amino)pyrazine-2-carbonitrile]	10 to 100 nM	100 to 500 nM
N#Cc1cnc(Nc2cc(-c3nc(C(F)(F)F)ccc3O[C@@H]3CC[C@H](N)C3)[nH]n2)cn1 [Example 3-49, 5-((5-(3-(((1R,3S)-3-aminocyclopentyl)oxy)-6-(trifluoromethyl)pyridin-2-yl)-1H-pyrazol-3-yl)amino)pyrazine-2-carbonitrile]	10 to 100 nM	100 to 500 nM
COc1cc(Cl)cc(O[C@@H]2CC[C@H](N)C2)c1-c1cc(Nc2cnc(C#N)cn2)n[nH]1 [Example 1-29, 5-((5-(2-(((1R,3S)-3-aminocyclopentyl)oxy)-4-chloro-6-methoxyphenyl)-1H-pyrazol-3-yl)amino)pyrazine-2-carbonitrile]	≤ 10 nM	100 to 500 nM
COc1cccc(O[C@@H]2CC[C@H](N)C2)c1-c1cc(Nc2cnc(C#N)cn2)n[nH]1 [Example 1-7, 5-((5-(2-(((1R,3S)-3-aminocyclopentyl)oxy)-6-methoxyphenyl)-1H-pyrazol-3-yl)amino)pyrazine-2-carbonitrile]	≤ 10 nM	≤ 50 nM
N#Cc1cnc(Nc2cc(-c3c(F)cc(Cl)cc3O[C@@H]3CC[C@H](N)C3)[nH]n2)cn1 [Example 3-24, 5-((5-(2-(((1R,3S)-3-aminocyclopentyl)oxy)-4-chloro-6-fluorophenyl)-1H-pyrazol-3-yl)amino)pyrazine-2-carbonitrile]	10 to 100 nM	500 to 1000 nM
Cc1cc(F)c(-c2cc(Nc3cnc(C#N)cn3)n[nH]2)c(O[C@@H]2CC[C@H](N)C2)c1 [Example 5-2, 5-((5-(2-(((1R,3S)-3-aminocyclopentyl)oxy)-6-fluoro-4-methylphenyl)-1H-pyrazol-3-yl)amino)pyrazine-2-carbonitrile]	10 to 100 nM	100 to 500 nM
COc1c(F)ccc(O[C@@H]2CC[C@H](N)C2)c1-c1cc(Nc2cnc(C#N)cn2)n[nH]1 [Example 1-26, 5-((5-(6-(((1R,3S)-3-aminocyclopentyl)oxy)-3-fluoro-2-methoxyphenyl)-1H-pyrazol-3-yl)amino)pyrazine-2-carbonitrile]	10 to 100 nM	50 to 100 nM
N#Cc1cnc(Nc2cc(-c3ccccc3O[C@@H]3CC[C@@H](N)C3)[nH]n2)cn1 (stereo in doubt) [Example 1-37, 5-((5-(2-(((1R,3R)-3-aminocyclopentyl)oxy)phenyl)-1H-pyrazol-3-yl)amino)pyrazine-2-carbonitrile]	100 to 500 nM	> 1000 nM
Cc1ccc(O[C@H]2CC[C@H](N)C2)c(-c2cc(Nc3cnc(C#N)cn3)n[nH]2)n1 [Example 3-44, 5-((5-(3-(((1S,3S)-3-aminocyclopentyl)oxy)-6-methylpyridin-2-yl)-1H-pyrazol-3-yl)amino)pyrazine-2-carbonitrile]	10 to 100 nM	500 to 1000 nM
N#Cc1cnc(Nc2cc(-c3ccccc3O[C@H]3CC[C@H](N)CC3)[nH]n2)cn1 [Example 1-51, 5-((5-(2-(((1r,4r)-4-aminocyclohexyl)oxy)phenyl)-1H-pyrazol-3-yl)amino)pyrazine-2-carbonitrile]	10 to 100 nM	> 1000 nM
N#Cc1cnc(Nc2cc(-c3cccc(Cl)c3O[C@@H]3CC[C@H](N)C3)[nH]n2)cn1 [Example 3-14, 5-((5-(2-(((1R,3S)-3-aminocyclopentyl)oxy)-3-chlorophenyl)-1H-pyrazol-3-yl)amino)pyrazine-2-carbonitrile]	500 to 1000 nM	> 1000 nM
Cc1nc(Nc2cc(-c3ccccc3O[C@@H]3CC[C@H](N)C3)[nH]n2)cnc1C#N [Example 1-40, 5-((5-(2-(((1R,3S)-3-aminocyclopentyl)oxy)phenyl)-1H-pyrazol-3-yl)amino)-3-methylpyrazine-2-carbonitrile]	100 to 500 nM	> 1000 nM
COc1cccc(O[C@H]2CC[C@H](N)CC2)c1-c1cc(Nc2cnc(C#N)cn2)n[nH]1 [Example 1-1, 5-((5-(2-(((lr,4r)-4-aminocyclohexyl)oxy)-6-methoxyphenyl)-1H-pyrazol-3-yl)amino)pyrazine-2-carbonitrile]	≤ 10 nM	50 to 100 nM
N#Cc1cnc(Nc2cc(-c3ccccc3O[C@H]3C[C@H](N)C3)[nH]n2)cn1 [Example 1-9, 5-((5-(2-((1r,3r)-3-aminocyclobutoxy)phenyl)-1H-pyrazol-3-yl)amino)pyrazine-2-carbonitrile]	10 to 100 nM	100 to 500 nM
